The text below walks through data of patent publication US20140121235A1, “Method for Treating S6K-Overexpressing Cancers” (Rush University Medical Center, priority 2012, published 2014).

What all share (assay type): cell-based
Assay [1] deals with MCF-7 cells. Nature of the assay: Western blot of protein phosphorylation in MCF-7 cells. How it is done:
(A) A77 1726 induces MAP kinase activation in A375 cells cultured in 10% fetal bovine serum. A375 cells were seeded in a 6-well plate overnight and then stimulated with various concentrations of A77 1726 or PLX 4720 (1 μM) for 2 hr. Cells were harvested and analyzed for MAP kinase activation by anti-phospho-ERK1/2 antibody. The membrane was stripped and re-probed with anti-ERK1/2 antibody. (B) Lack of the feedback activation of the MAP and PI-3 kinase pathways in BT-20 cells. BT20 cells seeded in 6-well plates were starved in DMEM medium containing 05% EBS for 2 hr and treated with A77 1726 (0, 50 or 100 μM), Cells were harvested and analyzed for protein phosphorylation by specific antibodies as indicated. Protein loading was monitored by stripping membrane and re-probing with antibodies against non-phosphorylated proteins. (C) Strong feedback activation of the PI-3 kinase pathway and weak feedback activation of the MAP kinase pathway in MCF-7 cells by A77 1726 and rapamycin. […] Cells were harvested and analyzed for protein phosphorylation with the indicated antibodies. […] Cells were harvested and analyzed for protein phosphorylation by specific antibodies as indicated. Protein loading was monitored by stripping membrane and re-probing with antibodies against nonphosphorylated proteins. […]

The subject of assay [2] is AKT^S473 and S6K1^T389 phosphorylation. The experiment in a line: Western blot of PI-3 kinase pathway phosphorylation in A375 cells. The conditions noted are these: A375 cells, dose-dependent. How it is done: (§1) A375 cells seeded in a 6-well plate were starved in DMEM medium containing 0.5% FBS for 2 hr and treated with the indicated concentration of A77 1726 or PLX 4720 (1 μM) for another 2 hr (A) or treated with A77 1726 (100 μM) for the indicated time (B & C). Cells were harvested and analyzed for protein phosphorylation by specific antibodies as indicated. Protein loading was monitored by stripping membrane and re-probing with antibodies against non-phosphorylated proteins. […] A375 cells seeded in a 6-well plate were starved in DMEM medium containing 05% FBS for 2 hr and treated with the indicated concentration of A77 1726 in the absence or presence of uridine (200 μM). Phosphorylated and total proteins were analyzed by Western blot as described above.
(§2) A375 cells seeded in 6-well plates were starved in DMEM medium containing 0.5% FBS for 2 hr and then pre-treated with vehicle (0.1% dimethyl sulfoxide), LY294002 (10 μM) (A), PPP (1 μM) (B), or the inhibitors of the MAP kinase pathway (PLX4720, 1 μM; U0126, 10 μM; PD98059, 10 μM) (C) for 1 hr. Cells were then treated with A77 1726 (100 μM) or rapamycin (20 nM) as indicated for 2 hr. Cells were harvested and analyzed for protein phosphorylation by specific antibodies as indicated. Protein loading was monitored by stripping membrane and re-probing with antibodies against non-phosphorylated proteins.
(§3) Cells grown in 6-well plates were harvested and lysed in NP-40 lysis buffer (50 mM Tris-HCI (pH 8.0), 150 mM NaCl, 1% NP-40, 5 mM EDTA, 10 μg/ml aprotinin, 10 μg/ml leupeptin, and 1 mM phenylmethylsulfonyl fluoride). After incubation on ice for 30 min, the cell lysates were prepared by spinning down at 4° C., 15,000 rpm for 15 min. After electrophoresis and transfer to Immobolin membrane, proteins of interest were probed with their specific antibodies, followed by horseradish peroxidase-conjugated goat anti-rabbit IgG and SuperSignal Western Pico enhanced chemiluminoscence substrate (Pierce Chemical Co., Rockford, Ill.).
(§4) The PI-3 and MAP kinase pathways play an important role in cell proliferation, differentiation, and cell cycle progress. Multiple genes in these two pathways are frequently mutated and have a commanding role in driving tumorigenesis and tumor cell proliferation (2; 3). […] Here we tested whether A77 1726 affected the activation of MAP and PI-3 kinase pathways. A375 cells grown in 6-well plates were starved in the media containing 0.5% FBS for 2 hr and then treated with the indicated concentration of A77 1726. […] We next explored the effect of A77 1726 in phosphorylation of the molecules in the PI-3 kinase pathway.

The subject of assay [3] is ribosomal protein S6^S235/S236 phosphorylation. Nature of the assay: Western blot of S6 phosphorylation in A375 cells. How it is done: as §1, §2, §3, §4
Background: Immunoblotting shows a protein as a band on a membrane.

Assay [4] relates to A375 cells. The experiment in a line: Cell cycle analysis (propidium iodine, flow cytometer). The conditions noted are these: A375 cells, A77 1726 at 50 μM, 24 hr. How it is done: (A) Ability of uridine to relieve the cell cycle arrest in the S phase. A375 cells grown in 6-well plates were treated with the indicated concentration of A771726 with or without uridine (200 μM) for 24 hr. Cell cycle was analyzed in a flow cytometer as described in Materials and Methods. (B) Effect of the MAP kinase pathway inhibitors on A77 1726-mediated cell cycle arrest in the S phase. A375 cells were treated with A771726 (100 μM) in the absence or presence of 0.1% DMSO, […] (1 μM), U0126 (10 μM), PD98059 (10 for 24 hr. Single cell suspensions were prepared and analyzed for cell cycle in a flow cytometer. (C) Effect of the PI-3 kinase pathway inhibitors and their effect on A77 1726-mediated cell cycle arrest. A375 cells were treated with A77 1726 (100 μM), rapamycin (20 nM), and/or LY294002 (10 μM). After incubation for 24 hr, cells were harvested and analyzed for cell cycle progress.
Cells were grown in complete RPMI1640 medium with 10% fetal bovine serum in 6-well plates. Upon 60% confluence, the cells were treated with vehicle or with indicated concentrations of A77 1726 or various inhibitors as indicated for 24 hr. Cells were pulsed with 10 μM BrdU for 2 hr. Cells were harvested, denatured with 2N HCl for 5 min at room temperature followed by neutralization with 0.1M borate buffer (pH 8.5). After washing and blocking with normal mouse serum, the cells were stained with an Alexa Fluor 488-conjugated anti-BrdU monoclonal antibody (BD Bioscience), followed by analysis in a flow cytometer. Alexa Fluor 488-conjugated mouse IgG was included as a control. For cell cycle analysis, the cells were harvested and fixed with 2 ml cold 70% ethanol in PBS overnight at 4° C. Fixed cells were then washed 3 times with PBS, treated with RNaseA (100 μg/ml in 0.5 ml PBS). After incubation at room temperature for 30 min, cells were stained with 2.5 μl propidium iodine (10 mg/ml.) and immediately analyzed for DNA content in a flow cytometer.
Background: In flow cytometry, cells or beads pass a laser one at a time.

As usually defined, the IC50 is the concentration that inhibits the measured activity by half. For the molecule `C/C(O)=C(\C#N)C(=O)Nc1ccc(C(F)(F)F)cc1` [A77 1726], in assay [1], the “effect on ERK phosphorylation” value is given as “slightly induced” and the “effect on S6^S235/236 phosphorylation” value was “Inhibition”. Further, the “effect on AKT^S473 and S6K1^T389 phosphorylation” value in assay [2] is “strongly induced”. In assay [3] (A375 cells, A77 1726 dose-dependent or 100 μM, rapamycin 20 nM, PPP 1 μM), the “effect on S6^S235/S236 phosphorylation” value is reported as “inhibited”. Further, the IC50 in assay [3] (Homo sapiens, A-375, read-out: IC50 to inhibit S6 phosphorylation in cell culture) lay in the range of 50 to 75 µM. Also, in assay [4], the “effect on cell cycle” value is on record as “sufficient to arrest cell cycle in the S phase”.
